The structures appear in SMILES notation. pEC50, pKd: −log10 of the molar value. Where two headings read alike, the source gives them in different places. *1 amine or outer side, *2 acyl side, *3 side chain or, on linkers, in order; H or OH if unused. Where a SMILES comes first, the peptide text is derived from it. Bridges are numbered along the chain shown (N, C = ends). [ ]: non-standard residue; d: D form. TATA = O=C(CC[*:1])N1CN(C(=O)CC[*:2])CN(C(=O)CC[*:3])C1; Phe(4-Me) = Cc1ccc(C[C@H](N)C(=O)O)cc1; 1Nal = N[C@@H](Cc1cccc2ccccc12)C(=O)O; 2Nal = N[C@@H](Cc1ccc2ccccc2c1)C(=O)O; hPhe = N[C@@H](CCc1ccccc1)C(=O)O; NMeA = CN[C@@H](C)C(=O)O Bounds are passed on as bounds.

Among the data in patent US11904020B2, “Bicyclic peptide ligands specific for TREM2” (Bicycle Tx Limited, priority 2021, dated 2024) are Kd and EC50 values, retold here.

The target in assay [1] is TREM2 extracellular domain (ECD). The experiment in a line: Bio-Layer Interferometry (BLI) direct binding assay, cyno. On the procedure: Traces were analysed using Octet Software (Version 11.0).
For orientation: In BLI a coated tip is dipped into the sample, and binding shifts an interference pattern.

Assay [2] deals with T1, TREM2 receptor (Homo sapiens, UniProt Q9NZC2).
T1 construct: Both parental (TREM2 expressing) and isogenic TREM2 KO iPSC macrophages were plated; endogenous in cells; host or cells: human iPSC-derived macrophages (parental, TREM2 expressing)
T1 sequence (Q9NZC2 19-230): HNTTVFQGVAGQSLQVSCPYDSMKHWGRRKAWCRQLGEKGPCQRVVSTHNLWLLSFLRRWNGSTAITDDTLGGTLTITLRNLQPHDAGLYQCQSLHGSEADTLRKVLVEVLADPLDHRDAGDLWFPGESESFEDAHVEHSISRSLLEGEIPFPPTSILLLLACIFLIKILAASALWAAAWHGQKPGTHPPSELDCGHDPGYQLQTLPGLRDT
The experiment in a line: pSYK Homogenous Time Resolved Fluorescence (HTRF) assay in iPSC macrophages. The format is cell-based. On the procedure: Quantitative assessment of total and phospho (Tyr 525/526) SYK was performed on iPSC macrophages using CisBio total and phospho-SYK HTRF kits (catalogue numbers 64SYKTPGG and 64SYKY525-PEG respectively). Human iPSC macrophage precursors derived from embryoid bodies were plated in 96 well plates (Perkin Elmer Cell Carrier ultra, black walled plates, #6055800) at a density of 40 k cells per well in 100 μl macrophage media (XVIVO15 (Lonza, #BE04-418F), 1% Penicillin-Streptomycin (Gibco, #15140-122), 1% GlutaMAX™ Supplement (Gibco, #35050-038), 0.1% M-CSF (Invitrogen, #PHC9501)). Cells were grown for 7 days to induce full differentiation to iPSC macrophages. Both parental (TREM2 expressing) and isogenic TREM2 KO iPSC macrophages were plated to test for specificity of peptide binding. Following differentiation, cells were stimulated for 5 mins with either the control TREM2 activating antibody (R&D systems, #AF1828), a human IgG control (R&D systems, #AB-108-C), or a 10 point CRC of bicyclic peptide (serial 2 fold dilutions from a starting concentration of 100 μM). Following stimulation the media was removed, and cells were lysed in 50 μl lysis buffer (supplied with the kit) per well. Cells were incubated in LB3 for 30 mins with shaking at room temperature. Following lysis, 16 μl of sample was removed and added to a white 384 well plate (ProxiPlate-384 Plus (Perkin Elmer, #6008280)) and 4 μl of pre-mixed antibody solution was added to each well of the plate. The plate was incubated overnight at room temperature, and the following day, […] was measured at 665 nm and 620 nm using a Pherastar FSX. The same cell lysate was used to assess total and phosphorylated SYK, to enable the generation of a ratio of phosphorylated SYK in each sample.
A general note: TR-FRET usually uses a lanthanide donor and a delayed reading to cut background.

For assay [3], the target named is TREM2 extracellular domain (ECD) (residues 19-131, C-terminally biotinylated, deglycosylated or glycosylated) (Homo sapiens, UniProt Q9NZC2). The assay can be described thus: biochemical. Conditions: for Kd: Human BLI (Kd; nM) (deglycosylated), Table 4A, deglycosylated human TREM2 ECD, steady-state KD, 25° C.
Method: Bio-layer interferometry was performed on an Octet RED384® system (Sartorius) at 25° C. in a buffer containing 50 mM HEPES (pH 7.5), 150 mM NaCl and 0.1% Tween. TREM2 extracellular domain (ECD) (residues 19-131, C-terminally biotinylated, deglycosylated or glycosylated) was loaded onto Superstreptavidin biosensors (SSA, 18-5070, Sartorius) at 0.0125 mg/ml for 300 s. Bicycle peptides (10 mM in DMSO) were dispensed into 384-Well Tilted-Bottom Plates (18-5076, Sartorius) using an Echo liquid handler giving a final DMSO concentration of 0.125% in all wells including control wells. Association of defined concentrations of bicyclic peptide (0-12.5 μM, 1:2 dilutions for 7 points) was recorded over 120 s followed by dissociation in buffer over 120 s. Reference wells containing no bicycle peptides and reference sensors loaded with an unrelated protein (His-tagged MLLT3a) were subjected to the same assay protocol and double reference subtraction was used for processing to account for non-specific binding. Traces were analysed using Octet Software (Version 11.0). Association and dissociation curves were globally fit and the response at equilibrium (Req) plotted against concentration to obtain steady-state KD values.
The mark [4] stands for this setting: human iPSC macrophages, 5 mins stimulation, phospho (Tyr 525/526) SYK, NB = no binding, read-out: pSYK.

Regarding `C[C@H](N)C(=O)N[C@H]1CSCCC(=O)N2CN3CN(C2)C(=O)CCSC[C@H](NC(=O)[C@H](Cc2ccc(O)cc2)NC(=O)[C@H](CCC(=O)O)NC(=O)[C@H](CO)NC1=O)C(=O)N[C@@H](Cc1ccccc1)C(=O)N[C@@H](Cc1c[nH]c2ccccc12)C(=O)N1CCC[C@H]1C(=O)N[C@@H](Cc1ccccc1)C(=O)N[C@@H](Cc1ccc(O)cc1)C(=O)N[C@@H](Cc1c[nH]cn1)C(=O)N[C@H](C(=O)N[C@@H](C)C(N)=O)CSCCC3=O` [BCY16054, A-(SEQ ID NO: 1)-A] (H-ACSEYCFWPFYHCA-NH2; linker 2-6-13 via TATA; N-terminus and C-terminus assumed), the dissociation constant (Kd) in assay [1] (Table 4A) stood at 3300 nM; in assay [3], 700 nM. The pEC50 in assay [2] was 4.97. In assay [3] (KD, binding to the human TREM2 extracellular domain in the BLI assay, FIGS. 1A to 1D), the pKd is roughly 6.15.

On to `CC(=O)N[C@H]1CSCCC(=O)N2CN3CN(C2)C(=O)CCSC[C@H](NC(=O)[C@H](Cc2ccc(O)cc2)NC(=O)[C@H](CCC(=O)O)NC(=O)[C@H](CO)NC1=O)C(=O)N[C@@H](Cc1ccccc1)C(=O)N[C@@H](Cc1cccc2ccccc12)C(=O)N1CCC[C@H]1C(=O)N[C@@H](Cc1ccccc1)C(=O)N[C@@H](Cc1ccc(O)cc1)C(=O)N[C@@H](C)C(=O)N[C@H](C(N)=O)CSCCC3=O` [BCY19294, Ac-(SEQ ID NO: 32)] (Ac-CSEYCF[1Nal]PFYAC-NH2; linker 1-5-12 via TATA), for which the pEC50 in assay [2] (setting [4]) was greater than 5.47. The compound also displayed a dissociation constant (Kd) in assay [3] of 1500 nM.

Turning to `CC(=O)N[C@H]1CSCCC(=O)N2CN3CN(C2)C(=O)CCSC[C@H](NC(=O)[C@H](Cc2ccc(O)cc2)NC(=O)[C@H](CCC(=O)O)NC(=O)[C@H](CO)NC1=O)C(=O)N[C@@H](Cc1ccccc1)C(=O)N[C@@H](Cc1ccc2ccccc2c1)C(=O)N1CCC[C@H]1C(=O)N[C@@H](Cc1ccccc1)C(=O)N[C@@H](Cc1ccc(O)cc1)C(=O)N[C@@H](C)C(=O)N[C@H](C(N)=O)CSCCC3=O` [BCY19296, Ac-(SEQ ID NO: 33)] (Ac-CSEYCF[2Nal]PFYAC-NH2; linker 1-5-12 via TATA; C-terminus assumed), in assay [2] (setting [4]), the pEC50 is greater than 5.47. The compound further registered a Kd in assay [3] of 2700 nM.

For the compound `CC(=O)N[C@H]1CSCCC(=O)N2CN3CN(C2)C(=O)CCSC[C@H](NC(=O)[C@H](Cc2ccc(O)cc2)NC(=O)[C@H](CCC(=O)O)NC(=O)[C@H](CO)NC1=O)C(=O)N[C@@H](Cc1ccc(C)cc1)C(=O)N[C@@H](Cc1c[nH]c2ccccc12)C(=O)N1CCC[C@H]1C(=O)N[C@@H](Cc1ccccc1)C(=O)N[C@@H](Cc1ccc(O)cc1)C(=O)N[C@@H](C)C(=O)N[C@H](C(N)=O)CSCCC3=O` [BCY19298, Ac-(SEQ ID NO: 30)] (Ac-CSEYC[Phe(4-Me)]WPFYAC-NH2; linker 1-5-12 via TATA; C-terminus assumed), the pEC50 in assay [2] (setting [4]) is greater than 5.47.

In the case of `CC(=O)N[C@H]1CSCCC(=O)N2CN3CN(C2)C(=O)CCSC[C@H](NC(=O)[C@H](Cc2ccc(O)cc2)NC(=O)[C@H](CCC(=O)O)NC(=O)[C@H](CO)NC1=O)C(=O)N[C@@H](Cc1ccccc1)C(=O)N[C@@H](Cc1c[nH]c2ccccc12)C(=O)N1CCC[C@H]1C(=O)N[C@@H](Cc1ccc(C)cc1)C(=O)N[C@@H](Cc1ccc(O)cc1)C(=O)N[C@@H](C)C(=O)N[C@H](C(N)=O)CSCCC3=O` [BCY19299, Ac-(SEQ ID NO: 36)] (Ac-CSEYCFWP[Phe(4-Me)]YAC-NH2; linker 1-5-12 via TATA; C-terminus assumed), the pEC50 in assay [2] (setting [4]) was less than 5.00. The same compound gave a dissociation constant (Kd) in assay [3] of 18000 nM.

Turning to `CC(=O)N[C@H]1CSCCC(=O)N2CN3CN(C2)C(=O)CCSC[C@H](NC(=O)[C@H](Cc2ccc(O)cc2)NC(=O)[C@H](CCC(=O)O)NC(=O)[C@H](CO)NC1=O)C(=O)N[C@@H](Cc1ccccc1)C(=O)N[C@@H](Cc1c[nH]c2ccccc12)C(=O)N1CCC[C@H]1C(=O)N[C@@H](CCc1ccccc1)C(=O)N[C@@H](Cc1ccc(O)cc1)C(=O)N[C@@H](C)C(=O)N[C@H](C(N)=O)CSCCC3=O` [BCY19301, Ac-(SEQ ID NO: 35)] (Ac-CSEYCFWP[hPhe]YAC-NH2; linker 1-5-12 via TATA), in assay [2] (setting [4]), the pEC50 is greater than 5.47.

On to `CC(=O)N[C@H]1CSCCC(=O)N2CN3CN(C2)C(=O)CCSC[C@H](NC(=O)[C@H](Cc2ccc(O)cc2)NC(=O)[C@H](CCC(=O)O)NC(=O)[C@H](CO)NC1=O)C(=O)N[C@@H](Cc1ccccc1)C(=O)N[C@@H](Cc1c[nH]c2ccccc12)C(=O)N(C)[C@@H](C)C(=O)N[C@@H](Cc1ccccc1)C(=O)N[C@@H](Cc1ccc(O)cc1)C(=O)N[C@@H](C)C(=O)N[C@H](C(N)=O)CSCCC3=O` [BCY19303, Ac-(SEQ ID NO: 34)] (Ac-CSEYCFW[NMeA]FYAC-NH2; linker 1-5-12 via TATA), for which the pEC50 in assay [2] (setting [4]) was greater than 5.47.

Take `C[C@H](N)C(=O)N[C@H]1CSCCC(=O)N2CN3CN(C2)C(=O)CCSC[C@H](NC(=O)[C@H](Cc2ccc(O)cc2)NC(=O)[C@H](CC(N)=O)NC(=O)[C@H]([C@@H](C)O)NC1=O)C(=O)N[C@@H](Cc1ccccc1)C(=O)N[C@@H](Cc1c[nH]c2ccccc12)C(=O)N1CCC[C@H]1C(=O)N[C@@H](Cc1ccccc1)C(=O)N[C@@H](CCC(N)=O)C(=O)N[C@@H](Cc1ccc(O)cc1)C(=O)N[C@H](C(=O)N[C@@H](C)C(N)=O)CSCCC3=O` [BCY19779, A-(SEQ ID NO: 18)-A] (H-ACTNYCFWPFQYCA-NH2; linker 2-6-13 via TATA): the pEC50 in assay [2] (setting [4]) was 5.60. Also, in assay [3], binding was put at a Kd of 920 nM.

In the case of `CC(C)C[C@@H]1NC(=O)[C@H](Cc2ccc(O)cc2)NC(=O)[C@H](Cc2ccccc2)NC(=O)[C@@H]2CCCN2C(=O)[C@H](Cc2c[nH]c3ccccc23)NC(=O)[C@H](Cc2ccccc2)NC(=O)[C@@H]2CSCCC(=O)N3CN(CN(C3)C(=O)CCSC[C@@H](C(=O)N[C@@H](C)C(N)=O)NC1=O)C(=O)CCSC[C@H](NC(=O)[C@H](C)N)C(=O)N[C@@H]([C@@H](C)O)C(=O)N[C@@H](CC(N)=O)C(=O)N[C@@H](Cc1ccc(O)cc1)C(=O)N2` [BCY19782, A-(SEQ ID NO: 21)-A] (H-ACTNYCFWPFYLCA-NH2; linker 2-6-13 via TATA), the pEC50 in assay [2] (setting [4]) is 5.42. The same compound showed a Kd in assay [3] of 1400 nM.

Take `C[C@H](N)C(=O)N[C@H]1CSCCC(=O)N2CN3CN(C2)C(=O)CCSC[C@H](NC(=O)[C@H](Cc2ccc(O)cc2)NC(=O)[C@H](CCC(=O)O)NC(=O)[C@H](CO)NC1=O)C(=O)N[C@@H](Cc1ccccc1)C(=O)N[C@@H](Cc1c[nH]c2ccccc12)C(=O)N1CCC[C@H]1C(=O)N[C@@H](Cc1ccccc1)C(=O)N[C@@H](CCC(N)=O)C(=O)N[C@@H](Cc1ccc(O)cc1)C(=O)N[C@H](C(=O)N[C@@H](C)C(N)=O)CSCCC3=O` [BCY19784, A-(SEQ ID NO: 23)-A] (H-ACSEYCFWPFQYCA-NH2; linker 2-6-13 via TATA): in assay [2] (setting [4]), the pEC50 was 5.74.

In assay [1] (Table 4B), `CC(=O)N[C@H]1CSCCC(=O)N2CN3CN(C2)C(=O)CCSC[C@H](NC(=O)[C@H](Cc2ccc(O)cc2)NC(=O)[C@H](CCC(=O)O)NC(=O)[C@H](CO)NC1=O)C(=O)N[C@@H](Cc1ccccc1)C(=O)N[C@@H](Cc1c[nH]c2ccccc12)C(=O)N1CCC[C@H]1C(=O)N[C@@H](Cc1cccc2ccccc12)C(=O)N[C@@H](Cc1ccc(O)cc1)C(=O)N[C@@H](C)C(=O)N[C@H](C(N)=O)CSCCC3=O` [BCY20722, Ac-(SEQ ID NO: 46)] (Ac-CSEYCFWP[1Nal]YAC-NH2; linker 1-5-12 via TATA) displayed a Kd of 3600 nM.

The Kd is a measure of binding affinity in units of concentration. A lower Kd goes with higher affinity. Usually pKd stands for the Kd on a negative log10 scale, so that one unit is a factor of ten. Low readings indicate a large Kd, high ones a small Kd.
